Experimental data published in ChEMBL document CHEMBL5046319, “Development of Low-Molecular-Weight Compounds Targeting the Cancer-Associated KLF5 Transcription Factor” (ACS Med Chem Lett, 2022).
Values belong to the molecule of their own block, whether it stands above or below them. Calls of active or inactive are those of the source. The calls are words filed in the database; no cut-off is given here.

Legend:
[1] = test system: HCT-116; experiment: Antiproliferative activity against human HCT-116 cells assessed as inhibition of cell proliferation at 100 uM incubated for 72 hrs by CCK-8 assay; assay type: functional, cell-based
[2] = test system: SW480; experiment: Antiproliferative activity against human SW480 cells assessed as inhibition of cell proliferation at 100 uM incubated for 72 hrs by CCK-8 assay; assay type: functional, cell-based
[3] = test system: CCD-841CoN; experiment: Cytotoxicity against human CCD841 cells assessed as inhibition of cell proliferation at 100 uM incubated for 72 hrs by CCK-8 assay; assay type: toxicity, cell-based
[4] = test system: SW480; experiment: Inhibition of Wnt signalling in human SW480 cells assessed as reduction in KLF5 mRNA expression at 10 uM measured after 24 hrs by RT-PCR analysis; assay type: cell-based
[5] = test system: CCD-841CoN; experiment: Inhibition of Wnt signalling in human CCD841 cells assessed as reduction in survivin expression at 10 uM measured after 24 hrs by western blot analysis; assay type: cell-based
[6] = test system: CCD-841CoN; experiment: Inhibition of Wnt signalling in human CCD841 cells assessed as reduction in KLF5 expression at 10 uM measured after 24 hrs by western blot analysis; assay type: cell-based
[7] = test system: HCT-116; experiment: Antiproliferative activity against human HCT-116 cells assessed as cell growth inhibition measured after 72 hrs by Cell Counting Kit-8 assay; assay type: functional, cell-based; conditions: HCT-116, 72 h
[8] = test system: CCD-841CoN; experiment: Inhibition of Wnt signalling in human CCD841 cells assessed as reduction in TCF4 expression at 10 uM measured after 24 hrs by western blot analysis; assay type: cell-based
[9] = test system: CCD-841CoN; experiment: Cytotoxicity against human CCD-841 cells assessed as cell growth inhibition measured after 72 hrs by Cell Counting Kit-8 assay; assay type: toxicity, cell-based
[10] = test system: SW480; experiment: Inhibition of Wnt signalling in human SW480 cells assessed as reduction in phosphorylation of beta-catenin at ser552 residues at 10 uM measured after 24 hrs by western blot analysis; assay type: cell-based
[11] = test system: SW480; experiment: Inhibition of Wnt signalling in human SW480 cells assessed as reduction in TCF4 expression at 10 uM measured after 24 hrs by western blot analysis; assay type: cell-based
[12] = test system: SW480; experiment: Antiproliferative activity against human SW480 cells assessed as cell growth inhibition measured after 72 hrs by Cell Counting Kit-8 assay; assay type: functional, cell-based; conditions: SW480, 72 h
[13] = test system: SW480; experiment: Inhibition of Wnt signalling in human SW480 cells assessed as reduction in KLF5 expression at 10 uM measured after 24 hrs by western blot analysis; assay type: cell-based
[14] = test system: SW480; experiment: Inhibition of Wnt signalling in human SW480 cells assessed as reduction in survivin expression at 10 uM measured after 24 hrs by western blot analysis; assay type: cell-based
[15] = test system: SW480; experiment: Inhibition of Wnt2 signalling in human SW480 cells assessed as reduction in cyclin D1 expression at 10 uM measured after 24 hrs by western blot analysis; assay type: cell-based
[16] = test system: SW480; experiment: Inhibition of Wnt signalling in human SW480 cells assessed as reduction in phosphorylation of beta-catenin at ser675 residue at 10 uM measured after 24 hrs by western blot analysis; assay type: cell-based
[17] = test system: SW480; experiment: Inhibition of USP3-KLF5 protein complex formation in human SW480 cells assessed as reduction in beta-catenin expression at 10 uM measured after 24 hrs by western blot analysis; assay type: cell-based
[18] = test system: HT-29; experiment: Antitumour activity against human HT-29 cells subcutaneously transplanted in nude mouse assessed as reduction in tumor volume at 2 mg, ip administered twice per day for 8 days; assay type: functional, organism-based; conditions: time 8.0 day
[19] = test system: CCD-841CoN; experiment: Inhibition of Wnt signalling in human CCD841 cells assessed as reduction in cyclin D1 expression at 10 uM measured after 24 hrs by western blot analysis; assay type: cell-based
[20] = test system: HEK293T; experiment: Inhibition of USP3-KLF5 protein complex formation in HEK293T cells overexpressing Myc tag-USP3 and FLAG/HA-KLF5 proteins assessed as reduction in KLF5 expression at 20 uM measured after 4 hrs by western blot analysis; assay type: cell-based; conditions: Homo sapiens
[21] = Toxicity in nude mouse transplanted subcutaneously with human HT-29 cells assessed as abnormality in epithelial cell integrity at 2 mg, ip administered twice daily for 8 days by H and E staining based assay; assay type: organism-based; conditions: in vivo, 192 h, time 8 day
[22] = Toxicity in nude mouse transplanted subcutaneously with human HT-29 cells assessed as abnormality in villi formation at 2 mg, ip administered twice daily for 8 days by H and E staining based assay; assay type: organism-based; conditions: in vivo, 192 h, time 8 day
[23] = test system: CCD-841CoN; experiment: Inhibition of Wnt signalling in human CCD841 cells assessed as reduction in phosphorylation of beta-catenin at ser675 residue at 10 uM measured after 24 hrs by western blot analysis; assay type: cell-based

Compound: O=C1[C@H](Cc2ccc(O)cc2)N2C(=O)CCN(C(=O)NCc3ccccc3)[C@H]2CN1Cc1cccc2ccccc12
Activity [1]: Active
Activity [2]: Active
Activity [3]: Toxic

Compound: O=Cc1ccccc1 [BENZALDEHYDE]
Activity [1]: Active
Activity [2]: Active
Activity [3]: Toxic

Compound: CC(C)[C@@H](ON)C(=O)OCc1ccccc1
Activity [1]: Active
Activity [2]: Active
Activity [3]: Toxic

Compound: CC(C)[C@@H](ON1C(=O)c2ccccc2C1=O)C(=O)OCc1ccccc1
Activity [1]: Active
Activity [2]: Active
Activity [3]: Toxic

Compound: CC(C)[C@H](O)C(=O)OCc1ccccc1
Activity [1]: Active
Activity [2]: Active
Activity [3]: Toxic

IC50 [7]: 5.1 µM
IC50 [12]: 5.1 µM
Compound: CCCC[C@H]1CN(Cc2ccccc2)C[C@@H]2N(C(=O)OCC(C)C)O[C@H](C(C)C)C(=O)N12
Activity [4]: inactive
Activity [5]: inactive
Activity [6]: inactive
Activity [8]: inactive
Activity [9]: Non-Toxic
Activity [10]: Active
Activity [11]: Active
Activity [13]: Active
Activity [14]: Active

Compound: CCOC(CNCc1ccccc1)OCC
Activity [1]: Active
Activity [2]: Active
Activity [3]: Toxic

Compound: CC(C)[C@H](O)C(=O)O
Activity [1]: Active
Activity [2]: Active
Activity [3]: Toxic

Compound: CCOC(CN)OCC
Activity [1]: Active
Activity [2]: Active
Activity [3]: Toxic

Compound: CCOC(CN(Cc1ccccc1)C(=O)[C@@H](N)[C@@H](C)CC)OCC
Activity [1]: Active
Activity [2]: Active
Activity [3]: Toxic

IC50 [7]: 2.5 µM
IC50 [12]: 2.5 µM
Compound: CC[C@H](C)[C@H]1CN(Cc2ccccc2)C[C@@H]2N(C(=O)OCC(C)C)O[C@H](C(C)C)C(=O)N12
Activity [15]: Active
Activity [16]: Active
Activity [17]: Active
Activity [18]: Active
Activity [9]: Non-Toxic
Activity [19]: inactive
Activity [20]: Active
Activity [10]: Active
Activity [21]: Non-Toxic
Activity [11]: Active
Activity [22]: Non-Toxic
Activity [13]: Active
Activity [23]: inactive
Activity [14]: Active

Compound: O=C1c2ccccc2C(=O)N1O
Activity [1]: Active
Activity [2]: Active
Activity [3]: Toxic

IC50 [7]: 5.1 µM
IC50 [12]: 5.1 µM
Compound: CC(C)COC(=O)N1O[C@H](C(C)C)C(=O)N2[C@@H](CC(C)C)CN(Cc3ccccc3)C[C@H]12
Activity [4]: inactive
Activity [5]: inactive
Activity [6]: inactive
Activity [8]: inactive
Activity [9]: Non-Toxic
Activity [10]: Active
Activity [11]: Active
Activity [13]: Active
Activity [14]: Active

Compound: CC[C@H](C)[C@H](NC(=O)OCC1c2ccccc2-c2ccccc21)C(=O)O
Activity [1]: Active
Activity [2]: Active
Activity [3]: Toxic

Compound: CCOC(CN(Cc1ccccc1)C(=O)[C@@H](NC(=O)OCC1c2ccccc2-c2ccccc21)[C@@H](C)CC)OCC
Activity [1]: Active
Activity [2]: Active
Activity [3]: Toxic
